The results in this text go back to patent US20100168102A9, “Amide Derivatives as Kinase Inhibitors” (Devgen NV, priority 2005, published 2010).

The target in one assay is T1, PKC epsilon (Homo sapiens, UniProt Q02156).
T1 construct: purchased Invitrogen P2282
T1 sequence (Q02156 1-737): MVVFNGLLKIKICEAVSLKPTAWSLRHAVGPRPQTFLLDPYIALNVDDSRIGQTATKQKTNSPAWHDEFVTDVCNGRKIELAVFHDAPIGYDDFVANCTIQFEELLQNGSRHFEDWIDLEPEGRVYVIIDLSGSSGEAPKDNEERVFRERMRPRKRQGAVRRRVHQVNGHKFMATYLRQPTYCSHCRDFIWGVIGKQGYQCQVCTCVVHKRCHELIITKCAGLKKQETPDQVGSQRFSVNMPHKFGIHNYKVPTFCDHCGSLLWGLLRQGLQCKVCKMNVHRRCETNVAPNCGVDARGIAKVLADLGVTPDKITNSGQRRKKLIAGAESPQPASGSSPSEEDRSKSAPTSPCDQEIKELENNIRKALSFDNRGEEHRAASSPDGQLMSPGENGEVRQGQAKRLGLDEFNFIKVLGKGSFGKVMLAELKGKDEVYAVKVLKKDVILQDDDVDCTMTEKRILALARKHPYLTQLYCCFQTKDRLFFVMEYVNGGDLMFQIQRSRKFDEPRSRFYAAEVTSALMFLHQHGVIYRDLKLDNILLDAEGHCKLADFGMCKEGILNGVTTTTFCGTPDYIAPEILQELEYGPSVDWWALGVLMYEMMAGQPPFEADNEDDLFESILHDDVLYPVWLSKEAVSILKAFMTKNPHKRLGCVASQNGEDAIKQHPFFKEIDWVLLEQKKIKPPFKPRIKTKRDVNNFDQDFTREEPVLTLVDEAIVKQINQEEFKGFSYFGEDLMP
Description: Biochemical assay for PKC epsilon (fluorescence polarization, Protein Kinase C Assay Kit, Red). The note with it: read-out: IC50 μM PKCε. The procedure, abridged: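 Read-out was fluorescence-polarization competition between phosphorylated substrate and a rhodamine PKC tracer for an anti-phosphoserine antibody, added with EDTA stop after an 80 min room-temperature kinase reaction with ATP and protein substrate (Mg2+/Ca2+ buffer). Enzyme (10 ng/ml final) was preincubated with compound for 30 min.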
In general terms: Polarisation of emitted light reports the rotation of a fluorescent probe.

A further assay concerns the target T2, human ROCKα/ROCKII mix (Homo sapiens, UniProt O75116).
T2 construct: purchased Upstate Biotechnology 14-451
Description: Biochemical assay for ROCK (fluorescence polarization, ROCK IMAP Kit).

[1] abbreviates: Table 2, compounds of Formula XIII.
Setting [2] is: compounds of Formula XIV, Table 3.

Like-named read-outs stand apart in the source and are kept apart here. Bounds are passed on as bounds.

T2 sequence (O75116 11-552 limits assumed): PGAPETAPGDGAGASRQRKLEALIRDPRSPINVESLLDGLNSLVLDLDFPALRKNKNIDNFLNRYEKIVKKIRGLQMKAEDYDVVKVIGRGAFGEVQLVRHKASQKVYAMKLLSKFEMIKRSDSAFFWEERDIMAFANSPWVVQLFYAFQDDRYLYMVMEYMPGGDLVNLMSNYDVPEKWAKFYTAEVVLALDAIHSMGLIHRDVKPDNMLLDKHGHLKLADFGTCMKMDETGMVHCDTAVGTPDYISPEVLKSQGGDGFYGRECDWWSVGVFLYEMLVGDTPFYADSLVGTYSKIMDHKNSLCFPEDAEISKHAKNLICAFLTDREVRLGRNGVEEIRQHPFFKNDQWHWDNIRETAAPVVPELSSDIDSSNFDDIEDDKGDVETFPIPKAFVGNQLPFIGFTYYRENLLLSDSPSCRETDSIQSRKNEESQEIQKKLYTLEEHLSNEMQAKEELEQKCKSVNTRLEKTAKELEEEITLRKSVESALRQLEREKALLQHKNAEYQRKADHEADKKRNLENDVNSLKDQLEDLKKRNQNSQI

In the case of `CC(C)(C(=O)N1CCCC1C(N)c1ccc(C(=O)Nc2ccncc2)cc1)c1ccc(Cl)cc1` (centres unmarked) [Compound 563, 4-(Amino-{1-[2-(4-chloro-phenyl)-2-methyl-propionyl]-pyrrolidin-2-yl}-methyl)-N-pyridin-4-yl-benzamide], the IC50 on PKC epsilon and against human ROCKα/ROCKII mix was 0.5 to 5 µM throughout.

For `NC(CNC(=O)c1ccccc1Nc1ccccc1)c1ccc(C(=O)Nc2ccncc2)cc1` (centres unmarked) [Compound 82, 4-[1-amino-2-(2-phenylamino-benzoylamino)-ethyl]-N-pyridin-4-yl-benzamide], the IC50 on PKC epsilon (setting [1]) and against human ROCKα/ROCKII mix (setting [1]) was 0.5 to 5 µM each time.

Regarding `CN(CC(N)c1ccc(C(=O)Nc2ccncc2)cc1)C(=O)C1(c2ccc(F)cc2)CCCC1` (centres unmarked) [Compound 475, 4-(1-Amino-2-{[1-(4-fluoro-phenyl)-cyclopentanecarbonyl]-methyl-amino}-ethyl)-N-pyridin-4-yl-benzamide], the IC50 at PKC epsilon and against human ROCKα/ROCKII mix was 0.5 to 5 µM in each case.

Take `NC(c1ccc(C(=O)Nc2ccncc2)cc1)C1CCCN1C(=O)C1Cc2ccccc21` (centres unmarked) [Compound 552, 4-{Amino-[1-(bicyclo[4.2.0]octa-1,3,5-triene-7-carbonyl)-pyrrolidin-2-yl]-methyl}-N-pyridin-4-yl-benzamide]: the IC50 (usually the concentration that gives 50% inhibition) lay within 5 to 50 µM on PKC epsilon and 0.05 to 0.5 µM against human ROCKα/ROCKII mix.

Turning to `CCC(C)C(=O)NCC(N)c1ccc(C(=O)Nc2ccncc2)cc1` (centres unmarked) [Compound 35, 4-[1-Amino-2-(2-methyl-butyrylamino)-ethyl]-N-pyridin-4-yl-benzamide], the IC50 at PKC epsilon (setting [1]) and against human ROCKα/ROCKII mix (setting [1]) was 0.5 to 5 µM throughout.

With “4-{1-Amino-2-[(3-methyl- cyclohexanecarbonyl)-amino]-ethyl}- N-pyridin-4-yl-benzamide [Compound 45]”, the IC50 at PKC epsilon (setting [1]) and against human ROCKα/ROCKII mix (setting [1]) was 0.5 to 5 µM in each case.

With `NC(CNC(=O)c1csc(-c2ccccc2)n1)c1ccc(C(=O)Nc2ccncc2)cc1` (centres unmarked) [Compound 124, 2-Phenyl-thiazole-4-carboxylic acid {2-amino-2-[4-(pyridin-4-ylcarbamoyl)-phenyl]-ethyl}-amide], the IC50 on PKC epsilon (setting [1]) lay in the range of 5 to 50 µM; against human ROCKα/ROCKII mix (setting [1]) it was 0.5 to 5 µM.

Take `COc1ccc(C(=O)NCC(N)c2ccc(C(=O)Nc3ccncc3)cc2)cc1` (centres unmarked) [Compound 74, 4-[1-amino-2-(4-methoxy-benzoylamino)-ethyl]-N-pyridin-4-yl-benzamide]: the IC50 on PKC epsilon (setting [1]) was 5 to 50 µM; at human ROCKα/ROCKII mix (setting [1]), 0.5 to 5 µM.

In the case of `NC(CNC(=O)CSc1ncccn1)c1ccc(C(=O)Nc2ccncc2)cc1` (centres unmarked) [Compound 64, 4-{1-amino-2-[2-(pyrimidin-2-ylsulfanyl)-acetylamino]-ethyl}-N-pyridin-4-yl-benzamide], the IC50 on PKC epsilon (setting [1]) lay in the range of 5 to 50 µM; against human ROCKα/ROCKII mix (setting [1]), 0.5 to 5 µM.

As to “4-[1-Amino-2-(benzyl- phenethyl-carbamoyl)-ethyl]- N-pyridin-4-yl-benzamide [Compound 226]”, the IC50 is 0.5 to 5 µM at PKC epsilon (setting [2]) and 0.05 to 0.5 µM at human ROCKα/ROCKII mix (setting [2]).

On to `CC(Cc1c[nH]c2ccccc12)NC(=O)CC(N)c1ccc(C(=O)Nc2ccncc2)cc1` (centres unmarked) [Compound 315, 4-{1-Amino-2-[2-(1H-indol-3-yl)-1-methyl-ethylcarbamoyl]-ethyl}-N-pyridin-4-yl-benzamide], for which the IC50 at PKC epsilon (setting [2]) lay in the range of 0.5 to 5 µM; against human ROCKα/ROCKII mix (setting [2]), 0.05 to 0.5 µM.

Consider `COc1ccc(C(NC(=O)CC(N)c2ccc(C(=O)Nc3ccncc3)cc2)c2ccc(OC)cc2)cc1` (centres unmarked) [Compound 244, 4-(1-Amino-2-{[bis-(4-methoxy-phenyl)-methyl]-carbamoyl}-ethyl)-N-pyridin-4-yl-benzamide], for which the IC50 is 0.5 to 5 µM at PKC epsilon (setting [2]) and 0.05 to 0.5 µM at human ROCKα/ROCKII mix (setting [2]).

Take `NC(c1ccc(C(=O)Nc2ccncc2)cc1)C1CCCN1C(=O)C1(c2ccc(F)c(F)c2)CCC1` (centres unmarked) [Compound 588, 4-(Amino-{1-[1-(3,4-difluoro-phenyl)-cyclobutanecarbonyl]-pyrrolidin-2-yl}-methyl)-N-pyridin-4-yl-benzamide]: the IC50 on PKC epsilon and against human ROCKα/ROCKII mix was 0.5 to 5 µM in each case.

On to `CCCC(=O)NCC(N)c1ccc(C(=O)Nc2ccncc2)cc1` (centres unmarked) [Compound 32, 4-(1-Amino-2-butyrylamino-ethyl)-N-pyridin-4-y-benzamide], for which the IC50 on PKC epsilon (setting [1]) and at human ROCKα/ROCKII mix (setting [1]) was 0.5 to 5 µM each time.

Regarding `NC(CC(=O)NC1CCN(Cc2ccccc2)CC1)c1ccc(C(=O)Nc2ccncc2)cc1` (centres unmarked) [Compound 200, 4-[1-amino-2-(1-benzyl-piperidin-4-ylcarbamoyl)-ethyl]-N-pyridin-4-yl-benzamide], the IC50 at PKC epsilon (setting [2]) lay in the range of 0.5 to 5 µM; against human ROCKα/ROCKII mix (setting [2]) it was 0.05 to 0.5 µM.

`NC(CNC(=O)C1(c2ccc(F)c(F)c2)CC1)c1ccc(C(=O)Nc2ccncc2)cc1` (centres unmarked) [Compound 377, 4-(1-Amino-2-{[1-(3,4-difluoro-phenyl)-cyclopropanecarbonyl]-amino}-ethyl)-N-pyridin-4-yl-benzamide]: the IC50 at PKC epsilon (setting [1]) is under 0.05 µM; at human ROCKα/ROCKII mix (setting [1]), 0.05 to 0.5 µM.

Turning to `NC(c1ccc(C(=O)Nc2ccncc2)cc1)C1CCCN1C(=O)Cc1cccc(F)c1` (centres unmarked) [Compound 569], the IC50 at PKC epsilon fell in the range of 5 to 50 µM; on human ROCKα/ROCKII mix it was 0.5 to 5 µM.

With `NC(CC(=O)Nc1ccc2[nH]ccc2c1)c1ccc(C(=O)Nc2ccncc2)cc1` (centres unmarked) [Compound 321, 4-[1-Amino-2-(1H-indol-5-ylcarbamoyl)-ethyl]-N-pyridin-4-yl-benzamide], the IC50 fell in the range of 0.5 to 5 µM at PKC epsilon (setting [2]) and 0.05 to 0.5 µM against human ROCKα/ROCKII mix (setting [2]).

On to `NC(CNC(=O)c1cccs1)c1ccc(C(=O)Nc2ccncc2)cc1` (centres unmarked) [Compound 116, Thiophene-2-carboxylic acid {2-amino-2-[4-(pyridin-4-ylcarbamoyl)-phenyl]-ethyl}-amide], for which the IC50 on PKC epsilon (setting [1]) and against human ROCKα/ROCKII mix (setting [1]) was 0.05 to 0.5 µM each time.

Take `NC(CNC(=O)C1(c2ccc(F)c(F)c2)CCCC1)c1ccc(C(=O)Nc2ccncc2)cc1` (centres unmarked) [Compound 379, 4-(1-Amino-2-{[1-(3,4-difluoro-phenyl)-cyclopentanecarbonyl]-amino}-ethyl)-N-pyridin-4-yl-benzamide]: the results for the IC50 on PKC epsilon (setting [1]) and at human ROCKα/ROCKII mix (setting [1]) were under 0.05 µM and 0.05 to 0.5 µM, respectively.

Take `NC(CC(=O)N[C@H]1CCc2ccccc21)c1ccc(C(=O)Nc2ccncc2)cc1` (stereo partly drawn) [Compound 357, 4-[1-Amino-2-((S)-indan-1-ylcarbamoyl)-ethyl]-N-pyridin-4-yl-benzamide]: the IC50 at PKC epsilon (setting [2]) was in the range of 0.5 to 5 µM; against human ROCKα/ROCKII mix (setting [2]), 0.05 to 0.5 µM.

Regarding `CC(C)(C(=O)N1CCCC1C(N)c1ccc(C(=O)Nc2ccncc2)cc1)c1ccc(F)cc1` (centres unmarked) [Compound 573, 4-(Amino-{1-[2-(4-fluoro-phenyl)-2-methyl-propionyl]-pyrrolidin-2-yl}-methyl)-N-pyridin-4-yl-benzamide], the IC50 on PKC epsilon and against human ROCKα/ROCKII mix was 0.5 to 5 µM throughout.

With `Cc1ccccc1NC(=O)NCC(N)c1ccc(C(=O)Nc2ccncc2)cc1` (centres unmarked) [Compound 25, 4-[1-amino-2-(3-o-tolyl-ureido)-ethyl]-N-pyridin-4-yl-benzamide], the IC50 at PKC epsilon lay within 0.5 to 5 µM; against human ROCKα/ROCKII mix, 0.05 to 0.5 µM.

Turning to `NC(c1ccc(C(=O)Nc2ccncc2)cc1)C1CCCN1C(=O)Cc1cccc(Cl)c1F` (centres unmarked) [Compound 602, 4-(Amino-{1-[2-(3-chloro-2-fluoro-phenyl)-acetyl]-pyrrolidin-2-yl}-methyl)-N-pyridin-4-yl-benzamide], the IC50 on PKC epsilon lay in the range of 5 to 50 µM; against human ROCKα/ROCKII mix it was 0.5 to 5 µM.

Regarding `Cc1ccccc1C(=O)NCC(N)c1ccc(C(=O)Nc2ccncc2)cc1` (centres unmarked) [Compound 84, 4-[1-amino-2-(2-methyl-benzoylamino)-ethyl]-N-pyridin-4-yl-benzamide], the IC50 at PKC epsilon (setting [1]) lay within 5 to 50 µM; against human ROCKα/ROCKII mix (setting [1]), 0.5 to 5 µM.

For the compound `CN(CC(N)c1ccc(C(=O)Nc2ccncc2)cc1)C(=O)C(C)(C)c1ccc(F)c(Cl)c1` (centres unmarked) [Compound 505, 4-(1-Amino-2-{[2-(3-chloro-4-fluoro-phenyl)-2-methyl-propionyl]-methyl-amino}-ethyl)-N-pyridin-4-yl-benzamide], the results for the IC50 on PKC epsilon and at human ROCKα/ROCKII mix were 5 to 50 µM and 0.5 to 5 µM, respectively.

Consider `CC(C)C(C(=O)N1CCCC1C(N)c1ccc(C(=O)Nc2ccncc2)cc1)c1ccc(Cl)cc1` (centres unmarked) [Compound 562, 4-(Amino-{1-[2-(4-chloro-phenyl)-3-methyl-butyryl]-pyrrolidin-2-yl}-methyl)-N-pyridin-4-yl-benzamide], for which the IC50 on PKC epsilon and against human ROCKα/ROCKII mix was 0.5 to 5 µM each time.

With `COc1ccc(CC(=O)N2CCCC2C(N)c2ccc(C(=O)Nc3ccncc3)cc2)cc1F` (centres unmarked) [Compound 571, 4-(Amino-{1-[2-(3-fluoro-4-methoxy-phenyl)-acetyl]-pyrrolidin-2-yl}-methyl)-N-pyridin-4-yl-benzamide], the results for the IC50 on PKC epsilon and at human ROCKα/ROCKII mix were 5 to 50 µM and 0.5 to 5 µM, respectively.
